Laboratory results from patent publication US20060116400A1, “Oxazolidinone and/or isoxazoline derivatives as antibacterial agents” (AstraZeneca AB, priority 2002, published 2006).
Converted amounts (≈) assume the structure as drawn.

Experiments:
Type in all cases: cell-based
[1] = tested on: Staphylococcus aureus MRQR; assay: MIC, standard in-vitro test, agar dilution; conditions: Staphylococcus aureus MRQR (methicillin resistant and quinolone resistant), 10^4 CFU/spot, 37° C., 24 hours
Method: (§1) The following results were obtained on a standard in-vitro test system The activity is described in terms of the minimum inhibitory concentration (MIC) determined by the agar-dilution technique with an inoculum size of 10^4 CFU/spot. Typically, compounds are active in the range 0.01 to 256 μg/ml.
(§2) Staphylococci were tested on agar, using an inoculum of 10^4 CFU/spot and an incubation temperature of 37° C. for 24 hours—standard test conditions for the expression of methicillin resistance.

[2] = tested on: Staphylococcus aureus MSQS; assay: MIC, standard in-vitro test, agar dilution; conditions: Staphylococcus aureus MSQS (methicillin sensitive and quinolone sensitive), 10^4 CFU/spot, 37° C., 24 hours
Method: as §1, §2

[3] = tested on: Enterococcus faecium; assay: MIC, standard in-vitro test, agar with 5% horse blood; conditions: agar with 5% defibrinated horse blood, 48 hours
Method: as §1
(§3) Streptococci and enterococci were tested on agar supplemented with 5% defibrinated horse blood, an inoculum of 10^4 CFU/spot and an incubation temperature of 37° C. in an atmosphere of 5% carbon dioxide for 48 hours—blood is required for the growth of some of the test organisms. Fastidious Gram negative organisms were tested in Mueller-Hinton broth, supplemented with hemin and NAD, grown aerobically for 24 hours at 37° C., and with an innoculum of 5×10^4 CFU/well

[4] = tested on: Linezolid Resistant Streptococcus pneumoniae; assay: as above; conditions: agar with 5% defibrinated horse blood, 48 hours
Method: as §1, §3

[5] = tested on: Streptococcus pneumoniae; assay: as above; conditions: agar with 5% defibrinated horse blood, 10^4 CFU/spot, 37° C., 5% carbon dioxide, 48 hours
Method: as §1, §3

[6] = tested on: Haemophilus influenzae; assay: MIC, fastidious Gram negative organisms in Mueller-Hinton broth; conditions: Mueller-Hinton broth with hemin and NAD, 24 hours, 37° C., 5×10^4 CFU/well
Method: as §1, §3

[7] = tested on: Moraxella catarrhalis; assay: as above; conditions: Mueller-Hinton broth with hemin and NAD, 24 hours, 37° C., 5×10^4 CFU/well
Method: as §1, §3

**Q.** With `O=C1O[C@@H](Cn2ccnn2)CN1c1ccc(-c2ccc(C3=NOC(CO)(CO)C3)cc2)c(F)c1` [Example 2, (5R)-3-{4′-(5,5-bis(Hydroxymethyl)-4,5-dihydroisoxazol-3-yl]-2-fluoro-1,1′-biphenyl-4-yl}-5-(1H-1,2,3-triazol-1-ylmethyl)-1,3-oxazolidin-2-one] as the molecule, how does the MIC [1] read?
**A.** Its MIC is 0.5 mg/L (≈ 1.07 µM).

**Q.** And the MIC [2]?
**A.** The MIC was 0.5 mg/L (≈ 1.07 µM).

**Q.** What about the MIC [3] of the same molecule?
**A.** The MIC was 0.25 mg/L (≈ 0.535 µM).

**Q.** What about the MIC [4] of the same molecule?
**A.** The MIC was 1 mg/L (≈ 2.14 µM).

**Q.** What about the MIC [5] of the same molecule?
**A.** Its MIC is 0.13 mg/L (≈ 0.278 µM).

**Q.** And the MIC [6]?
**A.** Its MIC is 4 mg/L (≈ 8.56 µM).

**Q.** And the MIC [7]?
**A.** Its MIC is 0.5 mg/L (≈ 1.07 µM).
